Test results reported in patent US20120149662A1, “Heterocyclic Compounds as Janus Kinase Inhibitors” (BioCryst Pharmaceuticals, Inc., priority 2009, published 2012).

Target: JAK3 (JH1domain-catalytic) kinase and other members of the JAK family
Assay: Test A: IC50 determination against JAK family kinases (Fabian et al. 2005 / Karaman et al. 2008 assay)
Format: binding
Conditions: 11 point dose response curves in triplicate; JAK family member not given; read-out: Activity (IC50) for JAK Family of Enzymes
Protocol: The ability of a compound of the invention to bind to JAK3 may be determined using pharmacological models which are well known to the art, or using Test A described below.
Inhibition constants (IC50s) were determined against JAK3 (JH1domain-catalytic) kinase and other members of the JAK family. Assays were performed as described in Fabian et al. (2005) Nature Biotechnology, vol. 23, p. 329 and in Karaman et al. (2008) Nature Biotechnology, vol. 26, p. 127 Inhibition constants were determined using 11 point dose response curves which were performed in triplicate. Table 1 shown below lists compounds of the invention and their respective IC50 values.

N#CCC(CC1CCCCC1)n1cc(-c2cnnc3[nH]ccc23)cn1 (stereo not drawn) [Compound 52e, 3-(4-(7H-pyrrolo[2,3-c]pyridazin-4-yl)-1H-pyrazol-1-yl)-4-cyclohexylbutane nitrile] and N#CCC(CC1CCCC1)n1cc(-c2cnnc3[nH]ccc23)cn1 (stereo not drawn) [Compound 51e, 3-(4-(7H-pyrrolo[2,3-c]pyridazin-4-yl)-1H-pyrazol-1-yl)-4-cyclopentylbutane nitrile] cannot be ordered by IC50: under 5 µM for the first, under 5 µM for the second.

N#CCC(C1CCCCC1)n1cc(-c2cnnc3[nH]ccc23)cn1 (stereo not drawn) [Compound 47d, 3-(4-(7H-pyrrolo[2,3-c]pyridazin-4-yl)-1H-pyrazol-1-yl)-3-cyclohexylpropane nitrile] and N#CC[C@H](C1CCCCC1)n1cc(-c2cnnc3[nH]ccc23)cn1 [Compound 58d, (R)-3-(4-(7H-pyrrolo[2,3-c]pyridazin-4-yl)-1H-pyrazol-1-yl)-3-cyclohexylpropanenitrile] cannot be ordered by IC50: under 5 µM for the first, under 5 µM for the second.

N#CC[C@H](c1cccc(O)c1)n1cc(-c2cnnc3[nH]ccc23)cn1 [Compound 68f, (R)-3-(4-(7H-pyrrolo[2,3-c]pyridazin-4-yl)-1H-pyrazol-1-yl)-3-(3-hydroxyphenyl)propanenitrile] and N#CC[C@H](c1ccccc1)n1cc(-c2cnnc3[nH]ccc23)cn1 [Compound 67d, (R)-3-(4-(7H-pyrrolo[2,3-c]pyridazin-4-yl)-1H-pyrazol-1-yl)-3-phenylpropane nitrile] cannot be ordered by IC50: under 5 µM for the first, under 5 µM for the second.

c1cc2c(-c3cn[nH]c3)cnnc2[nH]1 [Compound 31m, 4-(1H-pyrazol-4-yl)-7H-pyrrolo[2,3-c]pyridazine] and CCOC(C)n1cc(-c2cnnc3[nH]ccc23)cn1 (stereo not drawn) [Compound 32c, 4-(1-(1-ethoxyethyl)-1H-pyrazol-4-yl)-7H-pyrrolo[2,3-c]pyridazine] cannot be ordered by IC50: over 10 µM for the first, over 10 µM for the second.

CCS(=O)(=O)N1CC(CC#N)(n2cc(-c3cnnc4[nH]ccc34)cn2)C1 [Compound 49c, 2-(3-(4-(7H-pyrrolo[2,3-c]pyridazin-4-yl)-1H-pyrazol-1-yl)-1-(ethylsulfonyl)azetidin-3-yl)acetonitrile] and N#CCC1(n2cc(-c3cnnc4[nH]ccc34)cn2)COC1 [Compound 46c, 2-(3-(4-(7H-pyrrolo[2,3-c]pyridazin-4-yl)-1H-pyrazol-1-yl)oxetan-3-yl)acetonitrile] cannot be ordered by IC50: under 5 µM for the first, under 10 µM for the second.

N#CCC(C1CCC1)n1cc(-c2cnnc3[nH]ccc23)cn1 (stereo not drawn) [Compound 54e, 3-(4-(7H-pyrrolo[2,3-c]pyridazin-4-yl)-1H-pyrazol-1-yl)-3-cyclobutylpropane nitrile] and N#CCC(C1CC1)n1cc(-c2cnnc3[nH]ccc23)cn1 (stereo not drawn) [Compound 53d, 3-(4-(7H-pyrrolo[2,3-c]pyridazin-4-yl)-1H-pyrazol-1-yl)-3-cyclopropylpropane nitrile] cannot be ordered by IC50: under 5 µM for the first, under 5 µM for the second.

N#CC[C@]1(n2cc(-c3cnnc4[nH]ccc34)cn2)C[C@H](C#N)C1 [Compound 60g, (E)-3-(4-(7H-pyrrolo[2,3-c]pyridazin-4-yl)-1H-pyrazol-1-yl)-3-(cyanomethyl)cyclobutanecarbonitrile] and N#CC[C@]1(n2cc(-c3cnnc4[nH]ccc34)cn2)C[C@@H](C#N)C1 [Compound 60f, (Z)-3-(4-(7H-pyrrolo[2,3-c]pyridazin-4-yl)-1H-pyrazol-1-yl)-3-(cyanomethyl)cyclobutanecarbonitrile] cannot be ordered by IC50: under 5 µM for the first, under 5 µM for the second.

First: CC(C)(C)OC(=O)N1CC(CC#N)(n2cc(-c3cnnc4[nH]ccc34)cn2)C1 [Compound 45d, tert-butyl 3-(4-(7H-pyrrolo[2,3-c]pyridazin-4-yl)-1H-pyrazol-1-yl)-3-(cyanomethyl)azetidine-1-carboxylate]
Second: N#CCC1(n2cc(-c3cnnc4[nH]ccc34)cn2)CCC1 [Compound 55d, 2-(1-(4-(7H-pyrrolo[2,3-c]pyridazin-4-yl)-1H-pyrazol-1-yl)cyclobutyl)acetonitrile]
The IC50 of the first is higher: over 10 µM for the first, under 5 µM for the second.

Compared with c1ccc(-c2cnnc3[nH]ccc23)cc1 [Compound 50a, 4-phenyl-7H-pyrrolo[2,3-c]pyridazine], N#CCC(CC1CC1)n1cc(-c2cnnc3[nH]ccc23)cn1 (stereo not drawn) [Compound 57e, 3-(4-(7H-pyrrolo[2,3-c]pyridazin-4-yl)-1H-pyrazol-1-yl)-4-cyclopropylbutane nitrile] is lower in IC50: over 10 µM for the first, under 5 µM for the second.

First: CC(C)(C)C(=O)OCn1ccc2c(-c3cn[nH]c3)cnnc21 [Compound 43a, (4-(1H-pyrazol-4-yl)-7H-pyrrolo[2,3-c]pyridazin-7-yl)methyl pivalate]
Second: N#CC[C@@H](C1CCCC1)n1cc(-c2cnnc3[nH]ccc23)cn1 [Compound 44d, (S)-3-(4-(7H-pyrrolo[2,3-c]pyridazin-4-yl)-1H-pyrazol-1-yl)-3-cyclopentyl propanenitrile]
The IC50 of the first is higher: over 10 µM for the first, under 5 µM for the second. The second is the more potent here.

N#CC[C@H](CC1CCCC1)n1cc(-c2cnnc3[nH]ccc23)cn1 [Compound 59d, (S)-3-(4-(7H-pyrrolo[2,3-c]pyridazin-4-yl)-1H-pyrazol-1-yl)-4-cyclopentylbutanenitrile] and N#CCC(C1CCCC1)n1cc(-c2cnnc3[nH]ccc23)cn1 (stereo not drawn) [Compound 34j, 3-(4-(7H-pyrrolo[2,3-c]pyridazin-4-yl)-1H-pyrazol-1-yl)-3-cyclopentylpropanenitrile] cannot be ordered by IC50: under 5 µM for the first, under 5 µM for the second.

N#CCC[C@H](C1CCCC1)n1cc(-c2cnnc3[nH]ccc23)cn1 [Compound 62b, (R)-4-(4-(7H-pyrrolo[2,3-c]pyridazin-4-yl)-1H-pyrazol-1-yl)-4-cyclopentyl butanenitrile] and N#CC[C@H](C1CCCC1)n1cc(-c2cnnc3[nH]ccc23)cn1 [Compound 43g, (R)-3-(4-(7H-pyrrolo[2,3-c]pyridazin-4-yl)-1H-pyrazol-1-yl)-3-cyclopentylpropanenitrile] cannot be ordered by IC50: under 5 µM for the first, under 5 µM for the second.

Going from NC(=O)c1c[nH]c2nnnc(O)c12 [Compound 70c, 4-hydroxy-7H-pyrrolo[2,3-d][1,2,3]triazine-5-carboxamide] to N#CCC1(n2cc(-c3cnnc4[nH]ccc34)cn2)CCCC1 [Compound 48d, 2-(1-(4-(7H-pyrrolo[2,3-c]pyridazin-4-yl)-1H-pyrazol-1-yl)cyclopentyl)acetonitrile], the IC50 falls from over 10 µM to under 5 µM.

N#CCC1(n2cc(-c3cnnc4[nH]ccc34)cn2)CCCCC1 [Compound 56d, 2-(1-(4-(7H-pyrrolo[2,3-c]pyridazin-4-yl)-1H-pyrazol-1-yl)cyclohexyl)acetonitrile] gave an IC50 of under 5 µM.
